Laboratory results from patent US20130210846A1, “USE OF NOVEL PAN-CDK INHIBITORS FOR TREATING TUMORS” (BAYER INTELLECTUAL PROPERTY GMBH, priority 2010, published 2013).

Legend:
[1] = molecular target: T1, VEGF receptor tyrosine kinase-2 (VEGF-R2) (Homo sapiens, UniProt P35968); test: VEGF receptor-2 kinase assay (Assay 3); assay type: biochemical; conditions: 8 μM ATP, poly-(Glu4Tyr), 10 min 22° C.; read-out: VEGF-R2 (Assay 3) Concentration for half-maximal inhibition of the enzyme activity, IC50
T1 construct: GST; made in house; host or cells: baculovirus-infected insect cells (Sf9)
Procedure: Recombinant VEGF receptor tyrosine kinase-2 was purified as GST fusion protein from baculovirus-infected insect cells (Sf9). Poly-(Glu4Tyr), used as kinase substrate, was purchased from Sigma.
VEGF receptor tyrosine kinase (90 ng/measuring point) was incubated for 10 min at 22° C. in the presence of various concentrations of test substances (0 μM, and within the range 0.001-30 μM) in 30 μl assay buffer [40 mM Tris/HCl pH5.5, 10 mM MgCl2, 1 mM MnCl2, 3 μM Na ortho-vanadate, 1.0 mM dithiothreitol, 8 μM adenosine triphosphate (ATP), 0.96 μg/measuring point poly-(Glu4Tyr), 0.2 μCi/measuring point ^33P-gamma ATP, 1.4% dimethyl sulfoxide]. The reaction was stopped by adding EDTA solution (250 mM, pH 8.0, 15 μl/measuring point).
From each reaction mixture, 15 μl was applied to P30 filter strips (from Wallac), and unincorporated ^33P-ATP was removed by washing the filter strips three times, for 10 min each time, in 0.5% phosphoric acid. After drying the filter strips for 1 hour at 70° C., the filter strips were covered with scintillator strips (MeltiLex™ A, from Wallac) and stoved for 1 hour at 90° C. The amount of incorporated ^33P (substrate phosphorylation) was determined by scintillation measurement in a gamma-radiation measuring instrument (Wallac). The measured data were standardized to 0% inhibition (enzyme reaction without inhibitor) and 100% inhibition (all assay components except enzyme). The IC50 values were determined by means of a 4-parameter fit using the company's own software.

[2] = system: HCT116; test: Proliferation assay HCT116; assay type: cell-based; conditions: Homo sapiens, HCT-116, 96 h; HCT116, colon/rectum carcinoma; 4 days, crystal violet
Procedure: (§1) Cultivated human tumor cells (originally obtained from ATCC, HeLa-MaTu and HeLa-MaTu-ADR, originally obtained from Epo GmbH, Berlin, Germany) were plated at a density of 1000 to 5000 cells/measuring point, depending on the growth rate of the cell line, in a 96-well multititer plate in 200 μl of growth medium (DMEM/HAMS F12, 2 mM L-glutamine, 10% fetal calf serum). After 24 hours the cells of one plate (zero-point plate) were stained with crystal violet (see below), whereas the medium of the other plates was replaced with fresh culture medium (200 μl), to which the test substances had been added at various concentrations (0 μM, and in the range 0.01-30 μM; the final concentration of the solvent dimethyl sulfoxide was 0.5%). The cells were incubated for 4 days in the presence of the test substances. Cellular proliferation was determined by staining the cells with crystal violet: the cells were fixed by adding 20 μl/measuring point of an 11% glutaraldehyde solution for 15 min at room temperature. After washing the fixed cells with water three times, the plates were dried at room temperature. The cells were stained by adding 100 μl/measuring point of a 0.1% crystal violet solution (pH adjusted to pH3 by adding acetic acid). After washing the stained cells with water three times, the plates were dried at room temperature. The dye was dissolved by adding 100 μl/measuring point of a 10% acetic acid solution. The extinction was determined photometrically at a wavelength of 595 nm. The percentage change in cell growth was calculated by standardization of the measured values to the extinction values of the zero-point plate (=0%) and the extinction of the untreated (0 μM) cells (=100%). The measured data were standardized to 0% inhibition (cell proliferation without inhibitor) and 100% inhibition (zero-point plate). The IC50 values were determined by means of a 4-parameter fit using the company's own software.
(§2) The substances were examined in the following cell lines which, in an exemplary manner, represent the stated indications: […]

[3] = system: SW480; test: Proliferation assay SW480; assay type: cell-based; conditions: Homo sapiens, 96 h; SW480, colon/rectum carcinoma; 4 days, crystal violet
Procedure: as §1, §2

[4] = system: HT29; test: Proliferation assay HT29; assay type: cell-based; conditions: Homo sapiens, HT-29, 96 h; HT29, colon/rectum carcinoma; 4 days, crystal violet
Procedure: as §1, §2

[5] = system: A375; test: Proliferation assay A375; assay type: cell-based; conditions: Homo sapiens, A-375, 96 h; A375, skin: melanoma; 4 days, crystal violet
Procedure: as §1, with “After washing the fixed cells with water three times, the plates were dried at room temperature. The cells were stained by adding 100 μl/measuring point of a 0.1% crystal violet solution (pH adjusted to pH3 by adding acetic acid). After washing the stained cells with water three times, the plates were dried at room temperature. The dye was dissolved by adding 100 μl/measuring point of a 10% acetic acid solution.” left out, “The measured data were standardized to 0% inhibition (cell proliferation without inhibitor) and 100% inhibition (zero-point plate).” left out, “software. […]” for “software.”

[6] = system: NCI-ADR-Res; test: Proliferation assay NCI-ADR-Res; assay type: cell-based; conditions: Homo sapiens, 96 h, ovarial carcinoma, 4 days, crystal violet
Procedure: as §1, §2

[7] = system: HeLa-MaTu-ADR; test: Proliferation assay HeLa-MaTu-ADR; assay type: cell-based, human; conditions: cervix carcinoma, 4 days, crystal violet
Method in brief: (§3)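 Human tumour cells were seeded at 1000–5000 cells per well in DMEM/HAMS F12 with 2 mM L-glutamine and 10% FCS, then exposed after 24 h to compound at 0.01–30 μM (0.5% DMSO) for 4 days. Proliferation was read by crystal violet staining at 595 nm, normalised to a zero-point plate, and IC50 obtained by 4-parameter fit.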

[8] = system: NCI-H460; test: Proliferation assay NCI-H460; assay type: cell-based, human; conditions: NCI-H460, non-small-cell bronchial carcinoma; 4 days, crystal violet
Method in brief: as §3

[9] = system: 786-O; test: Proliferation assay 786-O; assay type: cell-based; conditions: Homo sapiens, 786-0, 96 h, kidney carcinoma, 4 days, crystal violet
Procedure: as §1, §2

[10] = system: Caki2; test: Proliferation assay Caki2; assay type: cell-based; conditions: Homo sapiens, CAKI-2, 96 h; Caki2, kidney carcinoma; 4 days, crystal violet
Procedure: as §1, §2

[11] = system: MCF7; test: Proliferation assay MCF7; assay type: cell-based, human; conditions: MCF7, estrogen receptor-positive mamma carcinoma; 4 days, crystal violet
Method in brief: as §3

[12] = system: Caco-2; test: Proliferation assay Caco-2; assay type: cell-based, human; conditions: Caco-2, colon/rectum carcinoma; 4 days, crystal violet
Method in brief: as §3

[13] = system: SK-BR-3; test: Proliferation assay SK-BR-3; assay type: cell-based; conditions: Homo sapiens, 96 h; SK-BR-3, estrogen receptor-negative mamma carcinoma; 4 days, crystal violet
Procedure: as §1, §2

[14] = system: MDA-MB 231; test: Proliferation assay MDA-MB 231; assay type: cell-based; conditions: Homo sapiens, 96 h; MDA-MB 231, estrogen receptor-negative mamma carcinoma; 4 days, crystal violet
Procedure: as §1, with “After washing the fixed cells with water three times, the plates were dried at room temperature. The cells were stained by adding 100 μl/measuring point of a 0.1% crystal violet solution (pH adjusted to pH3 by adding acetic acid). After washing the stained cells with water three times, the plates were dried at room temperature. The dye was dissolved by adding 100 μl/measuring point of a 10% acetic acid solution.” left out, “The measured data were standardized to 0% inhibition (cell proliferation without inhibitor) and 100% inhibition (zero-point plate).” left out, “software. […]” for “software.”

[15] = system: HeLa-MaTu; test: Proliferation assay HeLa-MaTu; assay type: cell-based, human; conditions: cervix carcinoma, 4 days, crystal violet
Procedure: as §1, §2

[16] = system: MDA-MB 453; test: Proliferation assay MDA-MB 453; assay type: cell-based; conditions: Homo sapiens, 96 h; MDA-MB 453, estrogen receptor-negative mamma carcinoma; 4 days, crystal violet
Procedure: as §1, §2

[17] = system: PC3; test: Proliferation assay PC3; assay type: cell-based; conditions: Homo sapiens, PC-3, 96 h; PC3, prostate carcinoma; 4 days, crystal violet
Procedure: as §1, §2

[18] = system: H1975; test: Proliferation assay H1975; assay type: cell-based; conditions: Homo sapiens, NCI-H1975, 96 h; H1975, non-small-cell bronchial carcinoma; 4 days, crystal violet
Procedure: as §1, §2

[19] = system: A431; test: Proliferation assay A431; assay type: cell-based; conditions: Homo sapiens, A-431, 96 h; A431, skin: epidermis; 4 days, crystal violet
Procedure: as §1, §2

[20] = system: HeLa; test: Proliferation assay HeLa; assay type: cell-based; conditions: Homo sapiens, 96 h, cervix carcinoma, 4 days, crystal violet
Procedure: as §1, §2

[21] = system: MIA PaCa-2; test: Proliferation assay MIA PaCa-2; assay type: cell-based; conditions: Homo sapiens, 96 h; MIA PaCa-2, pancreas carcinoma; 4 days, crystal violet
Procedure: as §1, §2

[22] = system: A549; test: Proliferation assay A549; assay type: cell-based; conditions: Homo sapiens, 96 h; A549, non-small-cell bronchial carcinoma; 4 days, crystal violet
Procedure: as §1, §2

[23] = system: DU145; test: Proliferation assay DU145; assay type: cell-based, human; conditions: DU145, prostate carcinoma; 4 days, crystal violet
Method in brief: as §3

[24] = system: OVCAR-8; test: Proliferation assay OVCAR-8; assay type: cell-based; conditions: Homo sapiens, 96 h; OVCAR-8, ovarial carcinoma; 4 days, crystal violet
Procedure: as §1, with “After washing the fixed cells with water three times, the plates were dried at room temperature. The cells were stained by adding 100 μl/measuring point of a 0.1% crystal violet solution (pH adjusted to pH3 by adding acetic acid). After washing the stained cells with water three times, the plates were dried at room temperature. The dye was dissolved by adding 100 μl/measuring point of a 10% acetic acid solution.” left out, “The measured data were standardized to 0% inhibition (cell proliferation without inhibitor) and 100% inhibition (zero-point plate).” left out, “software. […]” for “software.”

[25] = system: NCI-H69; test: Proliferation assay NCI-H69; assay type: cell-based; conditions: Homo sapiens, 96 h; NCI-H69, small-cell bronchial carcinoma; 4 days, crystal violet
Procedure: as §1, with “After washing the fixed cells with water three times, the plates were dried at room temperature. The cells were stained by adding 100 μl/measuring point of a 0.1% crystal violet solution (pH adjusted to pH3 by adding acetic acid). After washing the stained cells with water three times, the plates were dried at room temperature. The dye was dissolved by adding 100 μl/measuring point of a 10% acetic acid solution.” left out, “The measured data were standardized to 0% inhibition (cell proliferation without inhibitor) and 100% inhibition (zero-point plate).” left out, “software. […]” for “software.”

[26] = system: MOLM-13; test: Proliferation assay MOLM-13; assay type: cell-based; conditions: Homo sapiens, 96 h; MOLM-13, leukemia; 4 days, crystal violet
Procedure: as §1, with “After washing the fixed cells with water three times, the plates were dried at room temperature. The cells were stained by adding 100 μl/measuring point of a 0.1% crystal violet solution (pH adjusted to pH3 by adding acetic acid). After washing the stained cells with water three times, the plates were dried at room temperature. The dye was dissolved by adding 100 μl/measuring point of a 10% acetic acid solution.” left out, “The measured data were standardized to 0% inhibition (cell proliferation without inhibitor) and 100% inhibition (zero-point plate).” left out, “software. […]” for “software.”

T1 sequence (P35968 20-1356, species assumed): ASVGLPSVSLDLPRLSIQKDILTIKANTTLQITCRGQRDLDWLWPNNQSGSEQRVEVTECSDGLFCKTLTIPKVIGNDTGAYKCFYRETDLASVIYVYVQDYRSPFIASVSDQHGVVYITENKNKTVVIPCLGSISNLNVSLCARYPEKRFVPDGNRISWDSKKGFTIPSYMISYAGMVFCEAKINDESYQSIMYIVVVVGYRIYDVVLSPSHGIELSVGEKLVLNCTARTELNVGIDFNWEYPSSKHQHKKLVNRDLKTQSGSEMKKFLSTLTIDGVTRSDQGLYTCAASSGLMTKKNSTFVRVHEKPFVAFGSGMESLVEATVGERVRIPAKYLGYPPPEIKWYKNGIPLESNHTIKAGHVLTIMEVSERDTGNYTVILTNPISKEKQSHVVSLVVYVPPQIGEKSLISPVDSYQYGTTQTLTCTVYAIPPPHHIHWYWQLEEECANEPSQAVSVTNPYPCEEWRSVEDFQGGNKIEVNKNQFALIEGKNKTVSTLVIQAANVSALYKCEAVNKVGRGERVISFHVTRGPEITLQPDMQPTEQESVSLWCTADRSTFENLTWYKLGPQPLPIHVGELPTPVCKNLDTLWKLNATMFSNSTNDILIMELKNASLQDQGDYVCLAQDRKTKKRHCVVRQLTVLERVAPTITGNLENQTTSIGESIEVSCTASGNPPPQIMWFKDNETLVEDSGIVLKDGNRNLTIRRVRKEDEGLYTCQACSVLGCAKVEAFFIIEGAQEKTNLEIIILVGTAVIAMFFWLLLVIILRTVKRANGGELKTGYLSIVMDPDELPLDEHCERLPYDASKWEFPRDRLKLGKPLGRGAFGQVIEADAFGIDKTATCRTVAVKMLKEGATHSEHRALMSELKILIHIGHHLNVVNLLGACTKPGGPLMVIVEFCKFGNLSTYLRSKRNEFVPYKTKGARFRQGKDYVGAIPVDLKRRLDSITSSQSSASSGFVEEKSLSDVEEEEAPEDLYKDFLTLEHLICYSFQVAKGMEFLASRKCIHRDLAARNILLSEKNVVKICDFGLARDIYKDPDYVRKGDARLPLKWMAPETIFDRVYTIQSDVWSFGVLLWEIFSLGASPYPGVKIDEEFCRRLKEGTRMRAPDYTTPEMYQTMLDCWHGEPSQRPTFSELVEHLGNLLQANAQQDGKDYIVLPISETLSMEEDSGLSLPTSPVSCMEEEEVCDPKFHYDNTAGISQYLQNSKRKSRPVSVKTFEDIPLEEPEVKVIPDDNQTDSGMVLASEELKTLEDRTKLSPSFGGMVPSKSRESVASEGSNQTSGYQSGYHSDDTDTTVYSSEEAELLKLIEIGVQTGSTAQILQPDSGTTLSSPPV

Compound `C[C@@H](O)[C@@H](C)Oc1nc(Nc2ccc(S(=N)(=O)C3CC3)cc2)ncc1C(F)(F)F` (mixture of isomers) [Example 1-SI-2, (RS)—S-Cyclopropyl-S-(4-{[4-{[(1R,2R)-2-hydroxy-1-methylpropyl]oxy}-5-(trifluoromethyl)-pyrimidin-2-yl]amino}phenyl)sulfoximide] has an IC50 [1] of 163 nM, an IC50 [2] of 18 nM and an IC50 [3] of 15 nM. The IC50 [4] was 29 nM, the IC50 [5] was 14 nM and the IC50 [6] was 33 nM. The IC50 [7] was 8 nM, the IC50 [8] was 12 nM and the IC50 [9] was 20 nM. The IC50 [10] was 26 nM, the IC50 [11] was 15 nM and the IC50 [12] was 16 nM. For the same compound, the IC50 [13] was 13 nM, the IC50 [14] was 18 nM and the IC50 [15] was 11 nM. For the same compound, the IC50 [16] was 15 nM, the IC50 [17] was 25 nM and the IC50 [18] was 11 nM. It also gave an IC50 [19] of 14 nM, an IC50 [20] of 12 nM and an IC50 [21] of 21 nM. It also gave an IC50 [22] of 20 nM, an IC50 [23] of 8 nM and an IC50 [24] of 12 nM. For the same compound, the IC50 [25] was 37 nM and the IC50 [26] was 14 nM.
